Measurements taken from ChEMBL document CHEMBL3507680, “University of Dundee, Gates Library screen for HepG2 cell viability”.

Test: Human HepG2 cell viability assay in 384 well format
Type: toxicity, cell-based
Set-up: dose 125 nL, time 70.5 hour; cytotoxicity at 70.5 h: concentration not given beside the values
Settings: HepG2 cells, read-out: Inhibition

COc1ccccc1CN1C[C@@H](F)[C@@H](OCc2nc3ncccc3[nH]2)C1
cytotoxicity at 70.5 h: -0.841%

Cc1ccsc1-c1nnc(C2CCN(Cc3ccc(F)cc3)CC2)o1
cytotoxicity at 70.5 h: -21.5%

Cc1cc(C(=O)N2CC[C@H]3C[C@H](c4ccncn4)O[C@@H]3C2)no1
cytotoxicity at 70.5 h: 12.7%

O=C1OCCC1N1CCN(c2ccc(O)cc2)CC1 (configuration not stated)
cytotoxicity at 70.5 h: 10.3%

Cc1nn(C)cc1S(=O)(=O)N(CCc1ccccc1)Cc1ccn(C)n1
cytotoxicity at 70.5 h: -4.26%

CCC(CNC(=O)c1c(C)nn(C)c1OC)Oc1ccccc1 (configuration not stated)
cytotoxicity at 70.5 h: -7.65%

CCc1nc(CNC(=O)Nc2nc(COC)cs2)cs1
cytotoxicity at 70.5 h: -5.86%

O=C(C1CCOC1)N1C[C@H]2CN(Cc3cccc(F)c3)C(=O)[C@H]2C1 (some centres not stated)
cytotoxicity at 70.5 h: -0.77%

Cc1c(Cl)c(C(=O)N2CC(c3cccnc3)C2)nn1C
cytotoxicity at 70.5 h: -1.27%

COc1ccc(-c2nc(CNCCn3cccn3)cs2)cc1
cytotoxicity at 70.5 h: -5.1%

O=C(c1ccccn1)N1CC[C@H]2[C@H]1CCN2S(=O)(=O)C1CC1
cytotoxicity at 70.5 h: 6.25%

N#CC(NC(=O)c1cccc2c1OCCO2)c1ccc(F)cc1F (configuration not stated)
cytotoxicity at 70.5 h: -4.12%

Cn1cc(CN2C[C@H]3CCC[C@@]3(COc3ccccn3)C2)cn1
cytotoxicity at 70.5 h: -3.17%

Cc1cccc(CN2CC[C@H]3C[C@@H](C)O[C@@H]3C2)n1
cytotoxicity at 70.5 h: 10.9%

CNC(=O)[C@@H]1CCO[C@@H]2CCN(Cc3ccsc3)C[C@H]21
cytotoxicity at 70.5 h: -14%

Cc1ccccc1SCC(=O)N[C@H]1CC[C@H](n2cnnc2)CC1
cytotoxicity at 70.5 h: -5.74%

Cc1cc(C2CCCN2Cc2ccn(C)c(=O)c2)on1 (configuration not stated)
cytotoxicity at 70.5 h: -3.44%

Cc1nn(C)c(N2CCOCC2)c1CNC1CCN(C2CC2)CC1
cytotoxicity at 70.5 h: -6.05%

CCOC(=O)Cn1ccc(NC(=O)Cc2ccccc2F)n1
cytotoxicity at 70.5 h: -18.1%

Cc1noc(C2CCN(C(=O)C3CCCO3)CC2)n1 (configuration not stated)
cytotoxicity at 70.5 h: -9.25%

CCC(=O)N1CCC(NC2CCSCC2)C1 (configuration not stated)
cytotoxicity at 70.5 h: -8.75%

Cn1ncc2c(=O)[nH]c(CN3CCc4sccc4C3)nc21
cytotoxicity at 70.5 h: 13.1%

O=C(c1cn(-c2cc(N3CCOCC3)ncn2)cn1)N1CCSCC1
cytotoxicity at 70.5 h: -2%

CS(=O)(=O)N1CCCC(Cc2cncc(Br)c2)CC1 (configuration not stated)
cytotoxicity at 70.5 h: -2.69%

CN(CC1CCCN1C)c1nccc(C2CCCC2)n1 (configuration not stated)
cytotoxicity at 70.5 h: 6.3%

CN(CCC(O)c1ccccc1)Cc1nc(-c2ccccc2)no1 (configuration not stated)
cytotoxicity at 70.5 h: -7.98%

CN1CCN(C[C@H]2CN3CC[C@H]2C[C@@H]3CNC(=O)c2ccco2)CC1
cytotoxicity at 70.5 h: -6.36%

O=S1(=O)CCCN(Cc2ccccc2OCC(F)(F)F)CC1
cytotoxicity at 70.5 h: -8.02%

CCOC(=O)CN1CCC2(CCCN(CCOc3ccccc3)C2)C1 (configuration not stated)
cytotoxicity at 70.5 h: -16%

COc1cc(O)ccc1CN1CCN(C2CCc3ccccc3C2)CC1 (configuration not stated)
cytotoxicity at 70.5 h: -3.26%

Cn1c(=O)oc2cc(Nc3ncc(C#N)cc3Cl)ccc21
cytotoxicity at 70.5 h: -4.36%

COCC(=O)NCCCn1nc2ccccn2c1=O
cytotoxicity at 70.5 h: -15.5%

N[C@H]1CN(C(=O)c2ccccc2OCc2ccccc2)C[C@@H]1C1CC1
cytotoxicity at 70.5 h: -11.7%

COc1cccc(Cc2nnc(SC3CCOC3=O)o2)c1 (configuration not stated)
cytotoxicity at 70.5 h: -5.61%

O=C(NCC(F)F)c1ccc(S(=O)(=O)NCCc2ccncc2)cc1
cytotoxicity at 70.5 h: -11.1%

CCC(=O)N1CCC2(CC1)CNC(=O)c1cc(C)ccc1O2
cytotoxicity at 70.5 h: -1.62%

COC(=O)C1(NCc2nc(C)c(C)o2)CCC(C)CC1 (configuration not stated)
cytotoxicity at 70.5 h: -8.62%

CN(C)c1nccnc1C1CCN(C(=O)C2(C)CCCCN2C)CC1 (configuration not stated)
cytotoxicity at 70.5 h: -5.33%

CC(C)N1C(=O)C[C@H]2[C@@H]1CCN2C(=O)c1ccco1
cytotoxicity at 70.5 h: 24.5%

CN(C)CC1CCN(Cc2nccn2CC(F)(F)F)CC1
cytotoxicity at 70.5 h: -0.976%

CC(NC(=O)N1CCc2ccccc2C1)c1nncn1C (configuration not stated)
cytotoxicity at 70.5 h: -13.5%

CC(=O)c1ccc(-c2cnn(CC(=O)Nc3cc(C)nn3C)c2)nc1
cytotoxicity at 70.5 h: -13%

CC(=O)NCC(=O)N1CCOCC(Cc2ccc3c(ccn3C)c2)C1 (configuration not stated)
cytotoxicity at 70.5 h: -8.14%

COCCn1ccc2cc(NC(=O)COC)ccc21
cytotoxicity at 70.5 h: -3.46%

Cc1nc(CN2CCN(C(=O)c3sccc3C3CC3)CC2)oc1C
cytotoxicity at 70.5 h: 12.6%

CCC(CC)NC(=O)c1cncc(Br)c1
cytotoxicity at 70.5 h: 1.03%

N#Cc1ccc(C(=O)N2CCc3c(COCC4CC4)cncc3C2)cc1
cytotoxicity at 70.5 h: -5.21%

CC(=O)N(Cc1ncc(C)o1)C1CCN(CCc2cnn(C)c2)C1 (configuration not stated)
cytotoxicity at 70.5 h: -11.2%

COCc1nc(CNC2CCN(C(C)C)CC2)no1
cytotoxicity at 70.5 h: -8.15%

CN(C1CCCCC1)S(=O)(=O)N1CCN(Cc2ccco2)CC1
cytotoxicity at 70.5 h: -7.86%

CSCCNc1ccc(C(=O)N(C)Cc2ccc3ccccc3n2)cn1
cytotoxicity at 70.5 h: -12.8%

CN(C)c1nc(-c2ccncc2)nc2c1CCN(C(=O)[C@H](N)CO)C2
cytotoxicity at 70.5 h: -6.08%

CCOc1cccc(COC(=O)c2ccc(F)cn2)n1
cytotoxicity at 70.5 h: -2.51%

CC1CCN(c2nc3c(cnn3-c3ccccc3)c(=O)[nH]2)CC1
cytotoxicity at 70.5 h: -5.83%

O=C(c1cccc2c1OCO2)N1CCCC1Cn1cccn1 (configuration not stated)
cytotoxicity at 70.5 h: -8.17%

COc1ccc2c(c1)CC(NC(=O)NCc1cccs1)CO2 (configuration not stated)
cytotoxicity at 70.5 h: -14.1%

COc1nc(C)c(C(=O)N2CCN(c3ncccc3C)CC2)s1
cytotoxicity at 70.5 h: -4.24%

Cc1nnc(C(C)N(C)Cc2c(C)nn(-c3ccccc3C)c2C)o1 (configuration not stated)
cytotoxicity at 70.5 h: 2.96%

Cc1nn(C)c(C)c1C1CCCN1c1ncnc2[nH]ccc12 (configuration not stated)
cytotoxicity at 70.5 h: 0.0825%

COCc1cncc2c1CCN(C(=O)c1ccc(C#N)cc1)C2
cytotoxicity at 70.5 h: -10.3%

COc1ncccc1CNC(=O)NC1CCCOc2ccccc21 (configuration not stated)
cytotoxicity at 70.5 h: -4.36%

CC(C)CCN(C)C(=O)c1nc(S(C)(=O)=O)n2ccccc12
cytotoxicity at 70.5 h: 4.51%

CCNC(=O)c1ccc(NC2CCOC3(CCCC3)C2)nn1 (configuration not stated)
cytotoxicity at 70.5 h: 17%

CN(Cc1ccc(F)cc1)CC1(O)CCN(C(=O)c2cccs2)C1 (configuration not stated)
cytotoxicity at 70.5 h: 2.73%

O=C(CN1C(=O)CCC1=O)NCCc1nc(C2CC2)cc(C(F)(F)F)n1
cytotoxicity at 70.5 h: 31.4%

OCC(CO)N1CCC(c2nccnc2Nc2cnccn2)CC1
cytotoxicity at 70.5 h: -2.76%

COc1cc(NC(=O)N(C)C(C2CC2)C2CC2)ncn1
cytotoxicity at 70.5 h: -3.68%

CCc1cnc(C)nc1N1CCS(=O)(=O)CC1
cytotoxicity at 70.5 h: -7.02%

CCc1nc2n(n1)CC(NCc1cnn(Cc3ccccc3)c1)CC2 (configuration not stated)
cytotoxicity at 70.5 h: -5.29%

CS(=O)(=O)N1CCOCC2(CCN(C(=O)c3ccncc3)CC2)C1
cytotoxicity at 70.5 h: -6.51%

CNC(=O)C(C)(C)N1CCC[C@H]1C(=O)NC(C)(C)C
cytotoxicity at 70.5 h: 14.3%

CC(=O)c1ccccc1C(=O)NCC1(CO)CC1
cytotoxicity at 70.5 h: 4.58%

CNc1ncc2c(n1)CN(CCc1ccc(F)cc1)C2=O
cytotoxicity at 70.5 h: -10.4%

O=S(=O)(NCCn1ccc(-c2ccncc2)n1)C1CC1
cytotoxicity at 70.5 h: 0.267%

c1ccc(-c2nc3c(c(NCCn4cccc4)n2)CCNCC3)nc1
cytotoxicity at 70.5 h: -14.1%

CN(Cc1cccnc1)C[C@@H]1OC[C@H]2CN(Cc3ccco3)CC[C@H]21
cytotoxicity at 70.5 h: -2.49%

COc1cccc(CC(=O)N2Cc3nccn3CC(CN(C)C)C2)c1 (configuration not stated)
cytotoxicity at 70.5 h: -0.154%

CC(=O)N1[C@H](CN(C)C)C[C@@H]2CN(C(=O)c3occc3C)CC[C@@H]21
cytotoxicity at 70.5 h: -3.81%

CCN1C(=O)C[C@@H]2[C@@H]1CCN2S(=O)(=O)c1ccc(OC)cc1
cytotoxicity at 70.5 h: 9.29%

CCc1csc(CNc2nc3c(s2)c(C)nn3C)n1
cytotoxicity at 70.5 h: 10.5%

CCN1CCN(C(=O)C(C)N2CCN(Cc3nccn3C)CC2)CC1 (configuration not stated)
cytotoxicity at 70.5 h: 0.843%

Cc1ccc(C(=O)NCC2CCN(C)c3ccccc32)c(=O)[nH]1 (configuration not stated)
cytotoxicity at 70.5 h: -2.94%

CCNS(=O)(=O)c1ccc(C)c(C(=O)N(C)Cc2ccco2)c1
cytotoxicity at 70.5 h: -5.04%

CC(C)NS(=O)(=O)c1cc(C(=O)O)cc(-c2ccc3c(c2)OCCO3)c1
cytotoxicity at 70.5 h: -8.82%

CC(Cn1cccn1)NC(=O)Cc1csc(C(C)C)n1 (configuration not stated)
cytotoxicity at 70.5 h: -10.5%

Cc1ccc(-c2noc(CN3CCc4cncnc4C3)n2)cc1
cytotoxicity at 70.5 h: 11.6%

c1csc(CCC2CCCCN2Cc2noc(C3CC3)n2)c1 (configuration not stated)
cytotoxicity at 70.5 h: -13%

CN1CC(=O)N(C2CCC2)Cc2c(NC3CCNCC3)ncnc21
cytotoxicity at 70.5 h: -3.78%

CC(C)NC(=O)NCc1cc(-c2ccco2)n(CC(F)(F)F)n1
cytotoxicity at 70.5 h: -5.8%

CCCNC(=O)CC1OCCc2ccsc21 (configuration not stated)
cytotoxicity at 70.5 h: -6.25%

Cc1n[nH]c(=O)c2c(NC(=O)CN3CCOCC3C)oc(C)c12 (configuration not stated)
cytotoxicity at 70.5 h: 4.42%

Cc1nc(N2CCCCC2)ncc1-c1cc(O)[nH]n1
cytotoxicity at 70.5 h: -3.47%

CCc1nc(CC(=O)N2CCCC2c2c(C)nn(C)c2OC)cs1 (configuration not stated)
cytotoxicity at 70.5 h: -8.39%

CCOC(=O)[C@@H]1[C@@H](c2ccccc2)CN2CCN(C(=O)C3CC3)C[C@H]12
cytotoxicity at 70.5 h: 16.5%

CN(C)CCN(C)C[C@H]1CN2CC[C@H]1C[C@@H]2CNC(=O)Nc1ccsc1
cytotoxicity at 70.5 h: -2.68%

Cc1cc(NS(=O)(=O)c2ccc(Cl)s2)ccc1-n1cccc1C(=O)O
cytotoxicity at 70.5 h: -4.85%

CN(Cc1cccc(C#N)c1)c1ncc(C(N)=O)cc1Cl
cytotoxicity at 70.5 h: -8.78%

O=C1[C@H]2CN(C(=O)[C@H]3CCCO3)C[C@H]2CN1CC1CC1
cytotoxicity at 70.5 h: -5.67%

COc1ccccc1NC(=O)NC1(c2noc(CN(C)C)n2)CCCC1
cytotoxicity at 70.5 h: 22.4%

Cc1cccc(S(=O)(=O)N2C[C@H]3C[C@H](C(=O)N(C)C)[C@@H](C2)O3)c1
cytotoxicity at 70.5 h: 1.15%

CN1CCN(c2cc(N3CCCC3CO)ncn2)Cc2ccccc21 (configuration not stated)
cytotoxicity at 70.5 h: 17.8%

N#Cc1ccc(Oc2cc(F)c(CN3CCCC3)c(F)c2)nc1
cytotoxicity at 70.5 h: -2.2%

CCN(CC)C(CNS(=O)(=O)NCc1ccccc1)c1ccco1 (configuration not stated)
cytotoxicity at 70.5 h: -2.25%

CN(Cc1csc(-c2ccccc2)n1)C(=O)CCn1ccccc1=O
cytotoxicity at 70.5 h: -0.921%

CCc1ncc(C(=O)N2CC(Oc3ccccc3Cl)C2)cn1
cytotoxicity at 70.5 h: 10.7%

O=C(c1cnc(O)cn1)N1CCCC1c1nc2cc(F)ccc2[nH]1 (configuration not stated)
cytotoxicity at 70.5 h: -4.45%

CS(=O)(=O)N1CCC(Nc2ccnc3ccc(Cl)cc23)CC1
cytotoxicity at 70.5 h: -3.71%

Cc1nn(C)c(N2CCOCC2)c1CNC1COc2ccccc2C1 (configuration not stated)
cytotoxicity at 70.5 h: 27.5%

CNS(=O)(=O)c1ccc(CNC(=O)Nc2ccccn2)s1
cytotoxicity at 70.5 h: 3.18%

CC(C)N1CCCC2(CCN(Cc3nncn3C(C)C)C2)C1=O (configuration not stated)
cytotoxicity at 70.5 h: -0.727%

Cc1cc(CC(=O)NCc2ccnc(OCC(F)(F)F)c2)no1
cytotoxicity at 70.5 h: 34%

CN(C)C(C(=O)N1CCCN(C(=O)C2CCC2)CC1)c1ccccc1F (configuration not stated)
cytotoxicity at 70.5 h: -9.38%
